The nature of data set [1]: Pharmacokinetic study, single oral gavage dosing. Particulars: mouse, 40 mg/kg, 40 mpk, 15% solutol HS15 + 85% PBS, ICR mice, plasma; for AUC(0-t): read-out: Area under curve AUC0-t; for AUC(0-inf): read-out: Area under curve AUC0-∞; for MRT: read-out: Average retention time MRT; for half-life: read-out: Half life t1/2 (converted); for Cmax: read-out: Peak concentration Cmax; for Tmax: read-out: Time to peak tmax. Format: in vivo.

The target in another data set is T1, CYP2D6 (Homo sapiens, UniProt P10635).
T1 construct: co-incubated at 7 concentrations with human liver microsomes and five probe substrates; tissue Corning (USA); host or cells: mixed (pooled) human liver microsomes
T1 sequence (P10635 whole entry): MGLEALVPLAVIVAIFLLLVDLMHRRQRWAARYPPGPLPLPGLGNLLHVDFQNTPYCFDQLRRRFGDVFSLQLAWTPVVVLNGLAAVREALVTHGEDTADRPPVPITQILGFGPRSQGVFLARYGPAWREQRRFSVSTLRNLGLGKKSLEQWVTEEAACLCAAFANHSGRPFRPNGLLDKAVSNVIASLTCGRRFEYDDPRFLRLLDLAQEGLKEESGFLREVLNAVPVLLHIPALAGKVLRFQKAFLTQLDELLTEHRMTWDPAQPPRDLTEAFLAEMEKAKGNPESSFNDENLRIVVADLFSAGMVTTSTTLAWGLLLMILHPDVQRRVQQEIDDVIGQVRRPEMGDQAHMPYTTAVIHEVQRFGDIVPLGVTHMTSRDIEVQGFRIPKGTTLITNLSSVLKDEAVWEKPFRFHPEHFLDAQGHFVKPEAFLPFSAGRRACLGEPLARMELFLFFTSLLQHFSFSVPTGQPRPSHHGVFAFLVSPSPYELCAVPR
Briefly: CYP450 inhibition in human liver microsomes, CYP2D6. It is filed as in vitro ADME. To be noted: pooled (mixed) human liver microsomes, probe dextromethorphan; human liver microsomes, dextromethorphan; read-out: CYP2D6 IC50. As to the method: (§1) This study was intended to investigate the inhibitory effect of the test compounds on 5 major enzymes in human P450 superfamily, CYP1A2, 2C9, 2C19, 2D6 and 3A4-M. The mixed human liver microsomes used in this assay were purchased from Corning (USA). The test compound (compound 14) was co-incubated at 7 concentrations with human liver microsomes and five probe substrates (phenacetin for CYP1a2, diclofenac for CYP2C9, mephenytoin for CYP2C19, dextromethorphan for CYP2D6, midazolam for CYP3A4-M, mixed). The reaction was initiated by adding coenzyme NADPH, and terminated by adding acetonitrile containing internal standard. After the proteins were precipitated, the supernatant was centrifuged. The characteristic metabolites in the supernatant (acetaminophen for CYP1A2, 4-hydroxydiclofenac for CYP2C9, 4-hydroxymephenytoin for CYP2C19, dextrorphan for CYP2D6, 1-hydroxymidazolam for CYP3A4-M) were analyzed by LC-MS/MS. The influence of the test compounds on production of the characteristic metabolites was finally analyzed on the basis of the data obtained. A selective inhibitor (ketoconazole for CYP3A4-M) may be used as positive control. All samples were tested in duplicate.
Background: Microsomes from liver hold many membrane-bound enzymes, among them those of drug oxidation.

Another data set concerns the target T2, CYP3A4 (Homo sapiens, UniProt P08684).
T2 construct: The test compounds were co-incubated with the human liver microsomes and a probe substrate midazolam (CYP3A4); tissue Corning (USA); host or cells: mixed (pooled) human liver microsomes
Description: Time-dependent inhibition (TDI) of CYP3A4 in human liver microsomes. Format: in vitro ADME. Particulars: probe substrate midazolam. As to the method: This study was intended to investigate the time-dependent inhibition effect of the compounds on CYP3A4 in human P450 superfamily. The mixed human liver microsomes used in this assay were purchased from Corning (USA).
The test compounds were co-incubated with the human liver microsomes and a probe substrate midazolam (CYP3A4), and the concentration of the test compounds was set at 30 μM. The reaction was initiated by adding coenzyme NADPH, and terminated by adding acetonitrile dossolved with internal standard in advance. After the proteins were precipitated, the supernatant was centrifuged. The characteristic metabolite 1-hydroxy-midazolam (CYP3A4) in the supernatant was analyzed by LC-MS/MS. The influence of the test compounds on production of the characteristic metabolites was finally analyzed on the basis of the data obtained. A selective inhibitor (verapamil for CYP3A4-M) was used as positive control.

In data set [2] the target is T3, hERG potassium ion channel (Homo sapiens, UniProt Q12809).
T3 construct: expressed in transfected cells; host or cells: HEK-293
T3 sequence (Q12809 whole entry): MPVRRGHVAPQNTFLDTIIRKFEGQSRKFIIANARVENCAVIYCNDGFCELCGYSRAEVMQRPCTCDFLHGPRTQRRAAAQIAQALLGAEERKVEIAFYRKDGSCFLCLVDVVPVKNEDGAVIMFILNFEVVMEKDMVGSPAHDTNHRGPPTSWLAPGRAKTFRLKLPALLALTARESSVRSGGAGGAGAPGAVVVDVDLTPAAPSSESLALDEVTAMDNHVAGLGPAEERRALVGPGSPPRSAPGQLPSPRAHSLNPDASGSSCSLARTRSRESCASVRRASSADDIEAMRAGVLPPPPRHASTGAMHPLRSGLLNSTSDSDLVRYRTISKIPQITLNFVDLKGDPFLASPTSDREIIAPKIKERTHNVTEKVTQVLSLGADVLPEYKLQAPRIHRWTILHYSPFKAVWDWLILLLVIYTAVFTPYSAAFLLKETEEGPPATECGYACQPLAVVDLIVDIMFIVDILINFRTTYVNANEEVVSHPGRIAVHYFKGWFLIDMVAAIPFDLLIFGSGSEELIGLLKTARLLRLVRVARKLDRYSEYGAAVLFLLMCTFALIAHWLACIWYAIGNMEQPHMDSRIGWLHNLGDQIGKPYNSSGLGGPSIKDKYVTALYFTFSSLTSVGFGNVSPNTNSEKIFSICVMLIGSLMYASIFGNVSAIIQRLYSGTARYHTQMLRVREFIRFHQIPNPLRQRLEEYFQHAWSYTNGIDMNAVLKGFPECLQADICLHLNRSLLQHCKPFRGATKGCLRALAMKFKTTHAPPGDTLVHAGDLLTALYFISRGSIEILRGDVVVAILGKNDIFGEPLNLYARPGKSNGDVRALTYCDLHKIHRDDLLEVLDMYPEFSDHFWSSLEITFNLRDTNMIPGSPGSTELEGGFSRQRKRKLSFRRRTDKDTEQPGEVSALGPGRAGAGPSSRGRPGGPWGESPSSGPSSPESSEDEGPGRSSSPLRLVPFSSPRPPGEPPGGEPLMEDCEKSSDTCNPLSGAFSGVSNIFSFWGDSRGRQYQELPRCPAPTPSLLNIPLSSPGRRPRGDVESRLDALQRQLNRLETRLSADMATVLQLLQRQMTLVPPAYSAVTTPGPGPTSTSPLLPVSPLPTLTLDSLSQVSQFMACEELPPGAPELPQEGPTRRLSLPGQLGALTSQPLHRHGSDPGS
Description: hERG whole-cell patch clamp in HEK-293 cell line stably expressing hERG. It is filed as cell-based. To be noted: HEK-293 cells stably expressing hERG, pH 7.4, HEK-293 cells expressing hERG, mean ± spread. Here is the method: The working solutions of the test compounds were ultrasonically treated for 20 min.
Patch clamping: Under an inverted microscope, recording electrodes were controlled by micromanipulator to contact with the cell. A negative voltage was applied to create a G-omega shaped connection. After forming the G-omega shaped connection, a rapid capacitance compensation was given. Under the continuous negative voltage, the cell membrane was ruptured to form a whole-cell recording configuration. In the whole-cell recording configuration, slow capacitance compensation was given, and the values of membrane capacitance and series resistance were recorded. […]
The cover glasses planted with cells were placed in the recording chamber of an inverted microscope. […] The current detected in a cell in the negative control was used as the background for the cell. […]
[formula] Basic statistics were calculated for each concentration, including mean, standard deviation (SD), standard error (SE), and replicates (n). The dose-dependent curve was fitted with the following equation and the half maximal inhibitory concentration (IC50) of the test compounds was calculated: […]

For the next data set, the target named is T4, CYP1A2 (Homo sapiens, UniProt P05177).
T4 construct: co-incubated at 7 concentrations with human liver microsomes and five probe substrates; tissue Corning (USA); host or cells: mixed (pooled) human liver microsomes
T4 sequence (P05177 1-516): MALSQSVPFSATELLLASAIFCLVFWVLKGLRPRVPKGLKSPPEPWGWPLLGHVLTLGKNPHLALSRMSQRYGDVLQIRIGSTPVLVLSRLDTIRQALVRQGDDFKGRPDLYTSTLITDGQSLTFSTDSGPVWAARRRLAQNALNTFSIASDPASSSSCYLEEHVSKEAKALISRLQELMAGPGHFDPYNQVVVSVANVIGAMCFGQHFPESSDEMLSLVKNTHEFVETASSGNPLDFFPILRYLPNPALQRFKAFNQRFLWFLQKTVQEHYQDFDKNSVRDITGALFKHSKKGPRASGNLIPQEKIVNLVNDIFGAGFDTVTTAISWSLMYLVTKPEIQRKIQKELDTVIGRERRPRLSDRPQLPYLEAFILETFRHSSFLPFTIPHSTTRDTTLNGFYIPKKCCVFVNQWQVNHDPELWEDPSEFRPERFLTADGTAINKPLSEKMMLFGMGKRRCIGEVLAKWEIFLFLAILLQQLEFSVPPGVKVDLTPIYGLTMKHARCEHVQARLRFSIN
Description: CYP450 inhibition in human liver microsomes, CYP1A2. It is filed as in vitro ADME. To be noted: pooled (mixed) human liver microsomes, probe phenacetin. Here is the method: as §1

The target in the next data set is T5, CYP2C9 (Homo sapiens, UniProt P11712).
T5 construct: co-incubated at 7 concentrations with human liver microsomes and five probe substrates; tissue Corning (USA); host or cells: mixed (pooled) human liver microsomes
T5 sequence (P11712 whole entry): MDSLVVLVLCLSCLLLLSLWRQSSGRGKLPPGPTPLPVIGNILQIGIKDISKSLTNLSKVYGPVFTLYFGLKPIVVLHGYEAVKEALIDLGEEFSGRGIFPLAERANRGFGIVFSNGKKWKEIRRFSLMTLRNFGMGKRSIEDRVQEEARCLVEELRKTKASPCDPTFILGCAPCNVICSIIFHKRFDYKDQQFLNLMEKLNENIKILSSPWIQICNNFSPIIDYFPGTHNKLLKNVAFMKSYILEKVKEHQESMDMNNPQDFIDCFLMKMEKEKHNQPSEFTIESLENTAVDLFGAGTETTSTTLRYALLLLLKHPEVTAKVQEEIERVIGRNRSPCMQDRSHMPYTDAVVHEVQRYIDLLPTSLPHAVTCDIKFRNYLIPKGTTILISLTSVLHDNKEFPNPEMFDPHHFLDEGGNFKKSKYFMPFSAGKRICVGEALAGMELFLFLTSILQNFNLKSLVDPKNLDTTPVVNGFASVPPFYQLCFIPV
Briefly: CYP450 inhibition in human liver microsomes, CYP2C9. Format: in vitro ADME. To be noted: pooled (mixed) human liver microsomes, probe diclofenac. Here is the method:
as §1

T2 sequence (P08684 whole entry): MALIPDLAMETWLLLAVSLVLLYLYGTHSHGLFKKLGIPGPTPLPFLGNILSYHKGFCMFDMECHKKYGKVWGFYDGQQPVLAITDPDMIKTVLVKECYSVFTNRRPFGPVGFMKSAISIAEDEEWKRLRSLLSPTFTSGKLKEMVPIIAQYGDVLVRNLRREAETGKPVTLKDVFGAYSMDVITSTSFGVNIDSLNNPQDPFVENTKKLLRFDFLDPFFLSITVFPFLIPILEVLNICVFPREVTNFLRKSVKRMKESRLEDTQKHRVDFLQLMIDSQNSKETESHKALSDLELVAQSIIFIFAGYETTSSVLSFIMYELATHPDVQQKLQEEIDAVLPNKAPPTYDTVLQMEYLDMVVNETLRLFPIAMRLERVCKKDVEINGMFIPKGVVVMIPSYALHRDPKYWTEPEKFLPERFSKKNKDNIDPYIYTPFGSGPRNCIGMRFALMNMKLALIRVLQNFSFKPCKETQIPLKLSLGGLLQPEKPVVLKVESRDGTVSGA

Broadly, the MRT is the average time that molecules of a dose stay in the body. Usually Tmax stands for the time at which the peak concentration occurs. One may read the IC50 as the point on the concentration scale where inhibition reaches its midpoint. In general, inhibition refers to the change of the read-out against control, counted positive when it falls. Regarding `COc1cc2nn([C@H]3CC[C@](C)(O)CC3)cc2cc1NC(=O)c1cccc(C)[n+]1[O-]` [Compound 001, 2-((2-((1r,4r)-4-hydroxy-4-methylcyclohexyl)-6-methoxy-2H-indazol-5-yl)carbamoyl)-6-methylpyridine 1-oxide], in data set [1], the AUC(0-t) amounted to 294 µg·h/mL, the AUC(0-inf) came to 375 µg·h/mL, the MRT was determined as 15.3 h and the half-life is 11.5 h. In addition, in data set [1], the Cmax was 24200 ng/mL and the Tmax is 4 h. At CYP2D6, the IC50 is greater than 30 µM. Also, at CYP3A4, the “TDI (3A4, 30 μM)” value was −3.68%. The molecule further yielded an inhibition at 5 min, 30 µM in data set [2] of 5.09%. Further, on CYP1A2, the half-inhibitory concentration (IC50) is greater than 30 µM. Moreover, the IC50 against CYP2C9 was greater than 30 µM.

As to `COc1cc2nn(CCC(C)(C)O)cc2cc1NC(=O)c1cccc(C)[n+]1[O-]` [Compound 163, 2-((2-(3-hydroxy-3-methylbutyl)-6-methoxy-2H-indazol-5-yl)carbamoyl)-6-methylpyridine 1-oxide], in data set [1], the AUC(0-t) was determined as 207 µg·h/mL, the AUC(0-inf) was 207 µg·h/mL, the MRT came to 6.75 h and the half-life was 3.62 h. Besides, in data set [1], the Cmax turned out to be 25900 ng/mL and the Tmax stood at 4 h. Besides, at CYP2D6, the IC50 is greater than 30 µM. In data set [2], the inhibition at 5 min, 30 µM is 8.73%. This molecule also came in with an IC50 against CYP1A2 greater than 30 µM. At CYP2C9, this molecule returned an IC50 greater than 30 µM.

The values above are taken from US12617770B2, “IRAK inhibitor and preparation method therefor and use thereof” (WUHAN CREATERNA SCIENCE AND TECHNOLOGY CO., LTD., priority 2019, dated 2026).
